US10633383B2, “Compounds for the treatment, alleviation or prevention of disorders associated with Tau aggregates” (AC Immune SA, priority 2018, dated 2020)

The compounds below were run against T1, recombinant full-length (fl)Tau (human Tau 2N4R) aggregates (Homo sapiens, UniProt P10636) (assay: Full-length Tau (flTau) disaggregation assay by Thioflavin T (ThT)). Conditions: 2 μM flTau aggregates, 30 minutes at RT, ThT fluorescence.
T1 construct: 35 μM of recombinant full-length (fl)Tau in PBS were aggregated; made in house; host or cells: bacteria
Assay type: biochemical
Description: Full-Length Tau (flTau) Disaggregation Assay by Thioflavin T (ThT)
(§1) The longest isoform of human Tau (2N4R; 441 amino acids) was expressed in bacteria and purified. For the Tau disaggregation assay by ThT, 35 μM of recombinant full-length (fl)Tau in PBS were aggregated for 24 hours at 37° C. in presence of 50 μM of heparin (Sigma-Aldrich) and 10 mM of DTT (Sigma-Aldrich) under shaking at 750 RPM. Compounds were dissolved in anhydrous dimethyl sulfoxide (DMSO, Sigma-Aldrich) to reach a concentration of 10 mM. flTau aggregates and serial dilutions of compounds were mixed together in PBS (volume 50 μL) to a final concentration of 2 μM of flTau aggregates and from 160 to 0.04 μM of compounds. The mixture was incubated for 30 minutes at room temperature (RT), then 40 μL of this mixture were transferred into a black 384-well plate assay (Perkin-Elmer) and mixed with 10 μL of 100 μM ThT in 250 mM glycine (both from Sigma-Aldrich) in PBS. Fluorescence (relative fluorescence units; RFU) was measured in monoplicate or duplicate on a Tecan reader (excitation: 440 nm; emission: 485 nm). Percentage of flTau disaggregation was then calculated and the half maximal effective concentration (EC50) was determined using GraphPad Prism version 5 (GraphPad Software) assuming a one-binding site fitting model.

T1 sequence (P10636 1-441 isoform P10636-8): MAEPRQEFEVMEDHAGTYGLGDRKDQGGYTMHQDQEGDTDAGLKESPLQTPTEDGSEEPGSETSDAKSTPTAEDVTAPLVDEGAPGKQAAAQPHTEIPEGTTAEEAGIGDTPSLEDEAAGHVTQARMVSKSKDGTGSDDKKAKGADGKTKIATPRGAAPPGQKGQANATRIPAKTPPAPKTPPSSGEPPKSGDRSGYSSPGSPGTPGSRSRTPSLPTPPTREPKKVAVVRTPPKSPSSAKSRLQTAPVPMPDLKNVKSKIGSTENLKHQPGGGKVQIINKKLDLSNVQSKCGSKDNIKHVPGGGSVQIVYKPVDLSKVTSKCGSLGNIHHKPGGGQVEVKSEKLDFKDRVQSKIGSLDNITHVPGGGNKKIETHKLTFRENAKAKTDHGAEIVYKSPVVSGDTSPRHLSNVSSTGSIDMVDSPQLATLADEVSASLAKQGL

Row | EC50 [µM] | Compound
1 | 10 to 25 | CN(C)c1nc2ccc(N3CCc4c(c5cc(F)ccc5n4C)C3)cc2s1 [Example 3]
2 | < 10 | Fc1ccc2[nH]c3c(c2c1)CN(c1ccc2sc(N4CCOCC4)nc2c1)CC3 [Example 9]
3 | 10 to 25 | CN(C)c1nc2ccc(N3CCc4[nH]c5ccc(F)cc5c4C3)cc2o1 [Example 13]
4 | < 10 | COc1ccc2c(c1)c1c(n2C)CCN(c2ccc3nc(N4CCOCC4)sc3c2)C1 [Example 16]
5 | < 10 | Cn1c2c(c3cc(F)cnc31)CN(c1ccc3nc(N4CCOCC4)sc3c1)CC2 [Example 17]
6 | 10 to 25 | COc1ccc2[nH]c3c(c2c1)CN(c1ccc2nc(N4CCOCC4)oc2c1)CC3 [Example 18]
7 | < 10 | COc1ccc2[nH]c3c(c2c1)CN(c1ccc2nc(N4CCOCC4)sc2c1)CC3 [Example 19]
8 | 10 to 25 | COc1ccc2c(c1)c1c(n2C)CCN(c2ccc3oc(N4CCOCC4)nc3c2)C1 [Example 21]
9 | 25 to 50 | Cn1c2c(c3cc(F)ccc31)CN(c1ccc3sc(N4CCOCC4)nc3c1)CC2 [Example 22]
10 | 25 to 50 | COc1ccc2[nH]c3c(c2c1)CN(c1ccc2sc(N4CCOCC4)nc2c1)CC3 [Example 23]
11 | 25 to 50 | COc1ccc2[nH]c3c(c2c1)CN(c1ccc2oc(N4CCOCC4)nc2c1)CC3 [Example 24]
12 | < 10 | CC(C)Nc1nc2cc(N3CCc4c(c5cc(F)ccc5n4C)C3)ccc2s1 [Example 25]
13 | < 10 | CN(C)c1nc2cc(N3CCc4c(c5cc(F)ccc5n4C)C3)ccc2s1 [Example 28]
14 | < 10 | CN(C)c1nc2cc(N3CCc4c(c5cc(F)ccc5n4C)C3)ccc2o1 [Example 29]
15 | < 10 | COc1ccc2[nH]c3c(c2c1)CN(c1ccc2sc(N(C)C)nc2c1)CC3 [Example 30]
16 | < 10 | COc1ccc2c(c1)c1c(n2C)CCN(c2ccc3nc(N(C)C)sc3c2)C1 [Example 31]
17 | 25 to 50 | COc1ccc2c(c1)c1c(n2C)CCN(c2ccc3sc(N(C)C)nc3c2)C1 [Example 32]
18 | < 10 | COc1ccc2c(c1)c1c(n2C)CCN(c2ccc3nc(N(C)C)oc3c2)C1 [Example 33]
19 | < 10 | CN(C)c1nc2ccc(N3CCc4c(c5cc(F)cnc5n4C)C3)cc2s1 [Example 34]

Row | EC50 [µM] | Compound
20 | < 10 | Cn1c2c(c3cc(F)cnc31)CN(c1ccc3oc(N4CCOCC4)nc3c1)CC2 [Example 36]
21 | 25 to 50 | Cn1c2c(c3cc(F)cnc31)CN(c1ccc3nc(N4CCOCC4)oc3c1)CC2 [Example 39]
22 | 10 to 25 | COc1ccc2[nH]c3c(c2c1)CN(c1ccc2nc(N(C)C)oc2c1)CC3 [Example 40]
23 | 10 to 25 | CN(C)c1nc2cc(N3CCc4c(c5ccc(F)cc5n4C)C3)ccc2o1 [Example 42]
24 | < 10 | Fc1ccc2c3c([nH]c2c1)CCN(c1ccc2nc(N4CCOCC4)sc2c1)C3 [Example 43]
25 | 10 to 25 | Fc1ccc2c3c([nH]c2c1)CCN(c1ccc2nc(N4CCOCC4)oc2c1)C3 [Example 44]
26 | < 10 | Fc1ccc2oc3c(c2c1)CN(c1ccc2oc(N4CCOCC4)nc2c1)CC3 [Example 49]
27 | < 10 | Fc1cccc2[nH]c3c(c12)CN(c1ccc2sc(N4CCOCC4)nc2c1)CC3 [Example 52]
28 | < 10 | CN(C)c1nc2ccc(N3CCc4[nH]c5cc(F)ccc5c4C3)cc2s1 [Example 54]
29 | < 10 | CN(C)c1nc2ccc(N3CCc4[nH]c5cc(F)ccc5c4C3)cc2o1 [Example 55]
30 | < 10 | CN(C)c1nc2cc(N3CCc4[nH]c5cc(F)ccc5c4C3)ccc2o1 [Example 56]
31 | < 10 | Cn1c2c(c3ccc(F)cc31)CN(c1ccc3sc(N4CCOCC4)nc3c1)CC2 [Example 61]
32 | < 10 | Cn1c2c(c3ccc(F)cc31)CN(c1ccc3nc(N4CCOCC4)oc3c1)CC2 [Example 62]
33 | < 10 | Fc1ccc2c3c([nH]c2c1)CCN(c1ccc2sc(N4CCOCC4)nc2c1)C3 [Example 63]
34 | < 10 | Cn1c2c(c3ccc(F)cc31)CN(c1ccc3nc(N4CCOCC4)sc3c1)CC2 [Example 64]
35 | < 10 | Cn1c2c(c3ccc(F)cc31)CN(c1ccc3oc(N4CCOCC4)nc3c1)CC2 [Example 65]
36 | < 10 | CN(C)c1nc2ccc(N3CCc4c(c5ccc(F)cc5n4C)C3)cc2s1 [Example 67]
37 | 25 to 50 | Fc1ccc2[nH]c3c(c2c1)CN(c1ccc(N2CCOCC2)nc1)CC3 [Example 74]
38 | 10 to 25 | Cn1c2c(c3cc(F)ccc31)CN(c1ccc(N3CCOCC3)nc1)CC2 [Example 75]

Each compound was assayed on human neuroblastoma cell line overexpressing the full-length form of human Tau carrying the P301L mutation (assay: Reduction of intracellular Tau aggregation (AlphaLISA)). Conditions: compound at 5 μM, 24 h, aggregated Tau normalized to total Tau, relative to DMSO-treated cells.
Assay type: cell-based
Description: Reduction of Intracellular Tau Aggregation
A human neuroblastoma cell line overexpressing the full-length form of human Tau carrying the P301L mutation was cultured in complete medium [DMEM-F12 4.5 g/L Glutamax (Invitrogen), 15% FBS (Biochrom), 1% Peni/Strep (Invitrogen) supplemented with 2.5 μg/ml of G418 (Sigma-Aldrich) selection antibiotic]. The day before the experiment 5×10^5 cells/well were plated in a 6 well plate in 3 mL of complete medium. The next day, cells were incubated with DMSO or a compound of the present invention at a 5 μM for additional 24 h at 37° C. After incubation, cells were trypsinized, resuspended in 100 μl of homogenization buffer [25 mM Tris-HCl pH 7.4, 150 mM NaCl, 1 mM EDTA, 1 mM EGTA containing phosphatase inhibitors (30 mM NaF, 0.2 mM Na3VO4, 1 nM Okadaic acid, 1 mM PMSF, 5 mM Na4P2O7) and protease inhibitor cocktail (Complete™, Roche)], and then physically lysed with three rapid cycles of freezing and thawing. Samples were then directly tested in the AlphaLISA assay. Phosphorylated, aggregated, and total Tau were quantified by AlphaLisa using the following antibody pairs: • HT7-Acceptor beads+biotin (BT)-Tau13-Donor beads: Total Tau • HT7-Acceptor beads+biotin (BT)-HT7-Donor beads: Aggregated human Tau
The Tau13 (Abcam) was biotinylated using EZ-Link® NHS-PEO Solid Phase biotinylation kit (Thermo Scientific), while the HT7-biotin was from a commercial source (Thermo Scientific).
For each antibody pairs the concentration of acceptor beads and biotinylated antibodies was optimized. All samples were first tested in a dilution series in PBS in order to identify the linear range and optimal dilution for each sample and assay. For the final protocol, the following reagents were added in a 384-well white OptiPlate (PerkinElmer): • 5 μL of test diluted sample • 20 μL of the mixture biotin-mAb acceptor beads at the following final concentrations: • HT7-BT at 1.25 nM in combination with HT7-Acc beads at 10 μg/ml • Tau13-BT at 5 nM in combination with HT7-Acc beads at 2.5 μg/ml
After incubation of this mixture at room temperature for 1 h, 25 μL of Streptavidin Donor beads (Perkin Elmer) at 25 μg/mL were added in the dark. Plates were analyzed after 30 min incubation using the EnSpire Alpha instrument and EnSpire Workstation version 3.00. Data for aggregated Tau were normalized to total Tau and then expressed as percentage of the DMSO-treated cells.

Row | Compound | inhibition at 5 µM [%]
39 | Fc1ccc2[nH]c3c(c2c1)CN(c1ccc2nc(N4CCOCC4)sc2c1)CC3 [Example 6] | 25 to 50
40 | COc1ccc2[nH]c3c(c2c1)CN(c1ccc2nc(N4CCOCC4)sc2c1)CC3 [Example 19] | 25 to 50
41 | Fc1cccc2[nH]c3c(c12)CN(c1ccc2sc(N4CCOCC4)nc2c1)CC3 [Example 52] | 10 to 25
42 | CN(C)c1nc2ccc(N3CCc4[nH]c5cc(F)ccc5c4C3)cc2o1 [Example 55] | 10 to 25
43 | Cn1c2c(c3ccc(F)cc31)CN(c1ccc3nc(N4CCOCC4)sc3c1)CC2 [Example 64] | 10 to 25
44 | Fc1ccc2c3c([nH]c2c1)CCN(c1ccn2nc(N4CCOCC4)nc2c1)C3 [Example 70] | 25 to 50

Each compound was assayed against T2, Tau K18 fragment (amino acids 244 to 372 of human Tau441) aggregates (Homo sapiens, UniProt P10636) (assay: Tau K18 disaggregation assay by ThT). Conditions: 2 μM K18 aggregates, 30 minutes at RT, ThT fluorescence.
T2 construct: encompassing amino acids 244 to 372 of the longest isoform (2N4R) of human Tau441; host or cells: bacteria
Assay type: biochemical
Description: Tau K18 Disaggregation Assay by ThT
as §1, with “Compounds” for “The longest isoform of human Tau (2N4R; 441 amino acids) was expressed in bacteria and purified. For the Tau disaggregation assay by ThT, 35 μM of recombinant full-length (fl)Tau in PBS were aggregated for 24 hours at 37° C. in presence of 50 μM of heparin (Sigma-Aldrich) and 10 mM of DTT (Sigma-Aldrich) under shaking at 750 RPM. Compounds”, “K18” for “flTau”, “and” for “and the”

T2 sequence (P10636 561-689): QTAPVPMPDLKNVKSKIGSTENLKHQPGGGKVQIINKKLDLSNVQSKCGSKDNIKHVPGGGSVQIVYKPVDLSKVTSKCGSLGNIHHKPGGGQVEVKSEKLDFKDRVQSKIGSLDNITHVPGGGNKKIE

Row | EC50 [µM] | Compound
45 | < 10 | CN(C)c1nc2ccc(N3CCc4c(c5cc(F)ccc5n4C)C3)cc2s1 [Example 3]
46 | < 10 | Fc1ccc2[nH]c3c(c2c1)CN(c1ccc2nc(N4CCOCC4)sc2c1)CC3 [Example 6]
47 | < 10 | Fc1ccc2[nH]c3c(c2c1)CN(c1ccc2sc(N4CCOCC4)nc2c1)CC3 [Example 9]
48 | < 10 | CN(C)c1nc2ccc(N3CCc4[nH]c5ccc(F)cc5c4C3)cc2o1 [Example 13]
49 | < 10 | COc1ccc2[nH]c3c(c2c1)CN(c1ccc2oc(N4CCOCC4)nc2c1)CC3 [Example 24]
50 | < 10 | Fc1ccc2c3c([nH]c2c1)CCN(c1ccn2nc(N4CCOCC4)nc2c1)C3 [Example 70]
51 | 10 to 25 | COc1ccc(N2CCc3[nH]c4cc(F)ccc4c3C2)nc1 [Example 141]
52 | < 10 | C[C@@H]1CN(c2nc3cc(N4CCc5[nH]c6cc(F)ccc6c5C4)ccc3o2)C[C@H](C)O1 [Example 142]
53 | < 10 | CC(C)(C)Nc1nc2cc(N3CCc4[nH]c5cc(F)ccc5c4C3)ccc2o1 [Example 143]
54 | < 10 | Cn1c2c(c3ccccc31)CN(c1ccc3oc(N4CCOCC4)nc3c1)CC2 [Example 144]
55 | < 10 | CN1CCN(c2nc3cc(N4CCc5[nH]c6cc(F)ccc6c5C4)ccc3o2)CC1 [Example 145]
56 | < 10 | CCn1c2c(c3ccc(F)cc31)CN(c1ccc3oc(N4CCOCC4)nc3c1)CC2 [Example 146, 5-(5-ethyl-7-fluoro-3,4-dihydro-1H-pyrido[4,3-b]indol-2-yl)-2-morpholino-1,3-benzoxazole]
57 | < 10 | Cc1ccc(N2CCc3c(c4cc(F)ccc4n3C)C2)cc1O [Example 147]
58 | < 10 | COc1ccc(N2CCc3c(c4cc(F)ccc4n3C)C2)cc1 [Example 148]
59 | < 10 | Cn1c2c(c3cc(F)ccc31)CN(c1ccc(OCCO)cc1)CC2 [Example 149]
60 | < 10 | Cn1c2c(c3cc(F)ccc31)CN(c1ccc3cc(O)ccc3n1)CC2 [Example 150]
61 | < 10 | COc1cc(N2CCc3c(c4cc(F)ccc4n3C)C2)ccc1O [Example 151]
62 | < 10 | COc1cc(N2CCc3[nH]c4cc(F)ccc4c3C2)ccc1F [Example 152]
